# Reference: patent US10239832B2, “N-(1-hydroxy-3-(pyrrolidinyl)propan-2-yl)pyrrolidine-3-carboxamide derivatives as glucosylceramide synthase inhibitors” (BIOMARIN PHARMACEUTICAL INC., priority 2013, dated 2019)
# Target: T1, GCS (Canis lupus familiaris, UniProt A0A8I3MXG6)
# T1 construct: endogenous in cells; host or cells: MDCK (Madin-Darby canine kidney) cells, whole-cell lysate
# T1 sequence (A0A8I3MXG6 1-394): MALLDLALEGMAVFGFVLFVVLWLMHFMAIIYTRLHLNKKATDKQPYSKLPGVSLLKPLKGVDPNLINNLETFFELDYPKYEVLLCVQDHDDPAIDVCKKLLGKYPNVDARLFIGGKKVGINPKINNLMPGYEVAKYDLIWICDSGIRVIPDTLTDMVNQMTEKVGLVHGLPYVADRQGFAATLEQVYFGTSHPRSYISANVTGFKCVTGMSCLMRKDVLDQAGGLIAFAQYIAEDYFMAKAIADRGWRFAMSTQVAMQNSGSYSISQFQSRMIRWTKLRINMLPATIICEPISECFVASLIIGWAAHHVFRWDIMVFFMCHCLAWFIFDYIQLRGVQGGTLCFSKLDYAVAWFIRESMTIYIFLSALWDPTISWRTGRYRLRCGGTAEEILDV
# Experiment: GCS enzymatic assay (MDCK cell lysate, NBD-ceramide to glucosylceramide, LC/MS)
# Type: biochemical, canine
# Conditions: Table 2; class symbols A, B, C; the table does not say which of the assays; read-out: Data Range (IC50 values)
# Procedure, shortened: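 IC50 or percent inhibition came from LC/MS/MS (ESI+, MRM) of NBD-ceramide and glucosylceramide, with tolbutamide as internal standard. The reaction used MDCK (canine) cell lysate as the enzyme source and was ended with acetonitrile. Mock wells received 0.1% DMSO.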
row,IC50 [nM],Compound
1,1 to 30,"C=COc1ccc([C@@H](O)[C@@H](CN2CCCC2)NC(=O)[C@@H]2CCN(c3ccc(Cl)cc3)C2)cc1Cl [Compound 147, (R)-N-((1R,2R)-1-(3-chloro-4-(vinyloxy)phenyl)-1-hydroxy-3-(pyrrolidin-1-yl)propan-2-yl)-1-(4-chlorophenyl)pyrrolidine-3-carboxamide]"
2,1 to 30,"O=C(N[C@H](CN1CCCC1)[C@H](O)c1ccc(OC2CC2)cc1)[C@@H]1CCN(c2ccc(Cl)cc2)C1 [Compound 155, (R)-1-(4-chlorophenyl)-N-((1R,2R)-1-(4-cyclopropoxyphenyl)-1-hydroxy-3-(pyrrolidin-1-yl)propan-2-yl)pyrrolidine-3-carboxamide]"
3,1 to 30,"O=C(N[C@H](CN1CCCC1)[C@H](O)c1ccc(OCCN2CCC2)c(Cl)c1)[C@@H]1CCN(c2ccc(Cl)cc2)C1 [Compound 60, (R)-N-((1R,2R)-1-(4-(2-(azetidin-1-yl)ethoxy)-3-chlorophenyl)-1-hydroxy-3-(pyrrolidin-1-yl)propan-2-yl)-1-(4-chlorophenyl)pyrrolidine-3-carboxamide]"
4,1 to 30,"O=C(N[C@H](CN1CCCC1)[C@H](O)c1ccc(OC2CC2)c(Cl)c1)[C@@H]1CCN(c2ccc3cc(Cl)ccc3n2)C1 [Compound 100, (R)-N-((1R,2R)-1-(3-chloro-4-cyclopropoxyphenyl)-1-hydroxy-3-(pyrrolidin-1-yl)propan-2-yl)-1-(6-chloroquinolin-2-yl)pyrrolidine-3-carboxamide]"
5,1 to 30,"O=C(N[C@H](CN1CCCC1)[C@H](O)c1ccc(OC2CC2)c(F)c1)[C@@H]1CCN(c2ccc(F)cc2)C1 [Compound 69, (R)-N-((1R,2R)-1-(4-cyclopropoxy-3-fluorophenyl)-1-hydroxy-3-(pyrrolidin-1-yl)propan-2-yl)-1-(4-fluorophenyl)pyrrolidine-3-carboxamide]"

# The remaining lines, values behind:
row,Compound,IC50 [nM]
1,"O=C(N[C@H](CN1CCCC1)[C@H](O)c1ccc(OC2CC2)cc1)[C@@H]1CCN(c2ccc(F)cc2)C1 [Compound 148, (R)-N-((1R,2R)-1-(4-cyclopropoxyphenyl)-1-hydroxy-3-(pyrrolidin-1-yl)propan-2-yl)-1-(4-fluorophenyl)pyrrolidine-3-carboxamide]",1 to 30
2,"O=C(N[C@H](CN1CCCC1)[C@H](O)c1ccc2c(c1)OCCO2)[C@@H]1CCN(c2ccc(Cl)cc2)C1 [Compound 1, (R)-1-(4-chlorophenyl)-N-((1R,2R)-1-(2,3-dihydrobenzo[b][1,4]dioxin-6-yl)-1-hydroxy-3-(pyrrolidin-1-yl)propan-2-yl)pyrrolidine-3-carboxamide]",1 to 30
3,"O=C(N[C@H](CN1CCCC1)[C@H](O)c1ccc(OC2CC2)c(Cl)c1)[C@@H]1CCN(c2ccc(Cl)c(-c3ccc(F)cc3)n2)C1 [Compound 146, (R)-N-((1R,2R)-1-(3-chloro-4-cyclopropoxyphenyl)-1-hydroxy-3-(pyrrolidin-1-yl)propan-2-yl)-1-(5-chloro-6-(4-fluorophenyl)pyridin-2-yl)pyrrolidine-3-carboxamide]",1 to 30
4,"O=C(N[C@H](CN1CCC1)[C@H](O)c1ccc(OC2CC2)cc1)[C@H]1CCN(c2ccc3cc(F)ccc3c2)C1 [Compound 159C, (S)-N-((1R,2R)-3-(azetidin-1-yl)-1-(4-cyclopropoxyphenyl)-1-hydroxypropan-2-yl)-1-(6-fluoronaphthalen-2-yl)pyrrolidine-3-carboxamide]",100 to 1000
5,"O=C(N[C@H](CN1CCCC1)[C@H](O)c1ccc(OC2CC2)cc1)[C@@H]1CCN(c2ccc3ccsc3c2)C1 [Compound 157, (R)-1-(benzo[b]thiophen-6-yl)-N-((1R,2R)-1-(4-cyclopropoxyphenyl)-1-hydroxy-3-(pyrrolidin-1-yl)propan-2-yl)pyrrolidine-3-carboxamide]",1 to 30
6,"O=C(N[C@H](CN1CCCC1)[C@H](O)c1cc(F)c2c(c1)OCCO2)[C@H]1CCN(c2ccc(F)cc2)C1 [Compound 35A, (S)-N-((1R,2R)-1-(8-fluoro-2,3-dihydrobenzo[b][1,4]dioxin-6-yl)-1-hydroxy-3-(pyrrolidin-1-yl)propan-2-yl)-1-(4-fluorophenyl)pyrrolidine-3-carboxamide]",1 to 30
7,"O=C(N[C@H](CN1CCCC1)[C@H](O)c1ccc(OC2COC2)c(Cl)c1)[C@@H]1CCN(c2ccc3cc(F)ccc3c2)C1 [Compound 117, (R)-N-((1R,2R)-1-(3-chloro-4-(oxetan-3-yloxy)phenyl)-1-hydroxy-3-(pyrrolidin-1-yl)propan-2-yl)-1-(6-fluoronaphthalen-2-yl)pyrrolidine-3-carboxamide]",1 to 30
8,"O=C(N[C@H](CN1CCCC1)[C@H](O)c1cc(F)c2c(c1)OCCO2)[C@@H]1CCN(c2cccc(-c3ccc(F)cc3)n2)C1 [Compound 124, (R)-N-((1R,2R)-1-(8-fluoro-2,3-dihydrobenzo[b][1,4]dioxin-6-yl)-1-hydroxy-3-(pyrrolidin-1-yl)propan-2-yl)-1-(6-(4-fluorophenyl)pyridin-2-yl)pyrrolidine-3-carboxamide]",1 to 30
9,"O=C(N[C@H](CN1CCC1)[C@H](O)c1cc(F)c2c(c1)OCCO2)[C@@H]1CCN(c2ccc3ccccc3c2)C1 [Compound 85, (R)-N-((1R,2R)-3-(azetidin-1-yl)-1-(8-fluoro-2,3-dihydrobenzo[b][1,4]dioxin-6-yl)-1-hydroxypropan-2-yl)-1-(naphthalen-2-yl)pyrrolidine-3-carboxamide]",1 to 30

# Same assay, conditions: Table 2; class symbols D, E, F, NA (not active); the table does not say which of the assays
row,Data Range (% inhibition),Compound
1,E (50-74% (or less than 75%)),"Cn1ncc2cc(N3CC[C@@H](C(=O)N[C@H](CN4CCCC4)[C@H](O)c4ccc(OC5CC5)c(Cl)c4)C3)ccc21 [Compound 127, (R)-N-((1R,2R)-1-(3-chloro-4-cyclopropoxyphenyl)-1-hydroxy-3-(pyrrolidin-1-yl)propan-2-yl)-1-(1-methyl-1H-indazol-5-yl)pyrrolidine-3-carboxamide]"
2,F (1-49% (or less than 50%)),"O=C(N[C@H](CN1CCCC1)[C@H](O)c1ccc(OC2CC2)c(Cl)c1)C1CCN(c2ccc(Cl)cc2)C1 (stereo in doubt) [Compound 3B, (R)-N-((1R,2R)-1-(3-chloro-4-cyclopropoxyphenyl)-1-hydroxy-3-(pyrrolidin-1-yl)propan-2-yl)-1-(4-chlorophenyl)pyrrolidine-3-carboxamide]"
3,F (1-49% (or less than 50%)),"O=C(N[C@H](CN1CCCC1)[C@H](O)c1ccc(OC2COC2)c(Cl)c1)[C@@H]1CCN(c2ccc(Cl)cc2)C1 [Compound 59, (R)-N-((1R,2R)-1-(3-chloro-4-(oxetan-3-yloxy)phenyl)-1-hydroxy-3-(pyrrolidin-1-yl)propan-2-yl)-1-(4-chlorophenyl)pyrrolidine-3-carboxamide]"

# Further lines, the molecule ahead of its results:
row,Compound,Data Range (% inhibition)
1,"O=C(N[C@H](CN1CCCC1)[C@H](O)c1ccc2c(c1)OCCO2)[C@@H]1CCN(C2CCOCC2)C1 [Compound 9, (R)-N-((1R,2R)-1-(2,3-dihydrobenzo[b][1,4]dioxin-6-yl)-1-hydroxy-3-(pyrrolidin-1-yl)propan-2-yl)-1-(tetrahydro-2H-pyran-4-yl)pyrrolidine-3-carboxamide]",NA (not active—a negative value was generated for % inhibition)
2,"CC(C)Oc1ccc([C@@H](O)[C@@H](CN2CCCC2)NC(=O)[C@@H]2CCN(c3ccc(Cl)cc3)C2)cn1 [Compound 29, (R)-1-(4-chlorophenyl)-N-((1R,2R)-1-hydroxy-1-(6-isopropoxypyridin-3-yl)-3-(pyrrolidin-1-yl)propan-2-yl)pyrrolidine-3-carboxamide]",F (1-49% (or less than 50%))
3,"O=C(N[C@H](CN1CCCCC1)[C@H](O)c1cc(F)c2c(c1)OCCO2)[C@@H]1CCN(c2ccc(Cl)cc2)C1 [Compound 44, (R)-1-(4-chlorophenyl)-N-((1R,2R)-1-(8-fluoro-2,3-dihydrobenzo[b][1,4]dioxin-6-yl)-1-hydroxy-3-(piperidin-1-yl)propan-2-yl)pyrrolidine-3-carboxamide]",F (1-49% (or less than 50%))
4,"O=C(N[C@H](CN1CCCC1)[C@H](O)c1ccc2c(c1)OCCO2)C1CCN(c2ccc3cc(F)ccc3c2Cl)C1 (stereo partly drawn) [Compound 88C, 1-(1-chloro-6-fluoronaphthalen-2-yl)-N-((1R,2R)-1-(2,3-dihydrobenzo[b][1,4]dioxin-6-yl)-1-hydroxy-3-(pyrrolidin-1-yl)propan-2-yl)pyrrolidine-3-carboxamide]",D (75-100%)
5,"O=C(N[C@H](CN1CCCC1)[C@H](O)c1ccc2c(c1)OCCO2)[C@@H]1CCN(c2ccc3cccnc3c2)C1 [Compound 106, (R)-N-((1R,2R)-1-(2,3-dihydrobenzo[b][1,4]dioxin-6-yl)-1-hydroxy-3-(pyrrolidin-1-yl)propan-2-yl)-1-(quinolin-7-yl)pyrrolidine-3-carboxamide]",D (75-100%)
6,"O=C(N[C@H](CN1CCCCC1)[C@H](O)c1cc(F)c2c(c1)OCCO2)[C@H]1CCN(c2ccc(Cl)cc2)C1 [Compound 44C, (S)-1-(4-chlorophenyl)-N-((1R,2R)-1-(8-fluoro-2,3-dihydrobenzo[b][1,4]dioxin-6-yl)-1-hydroxy-3-(piperidin-1-yl)propan-2-yl)pyrrolidine-3-carboxamide]",NA (not active—a negative value was generated for % inhibition)
